Assay results reported in patent publication US9045470B2, “Compounds and compositions as TLR activity modulators” (IRM LLC, priority 2009, dated 2015).

Legend:
human TLR7 = target: T1, human TLR7 (Homo sapiens, UniProt Q9NYK1); test: Reporter gene assay: HEK293 cells stably transfected with human TLR7 and NF-kB-driven luciferase reporter; type: cell-based
T1 construct: expressed in transfected cells; host or cells: HEK 293 (human embryonic kidney 293), stably transfected; co-transfected pNifty-Luciferase reporter
T1 sequence (Q9NYK1 27-1049): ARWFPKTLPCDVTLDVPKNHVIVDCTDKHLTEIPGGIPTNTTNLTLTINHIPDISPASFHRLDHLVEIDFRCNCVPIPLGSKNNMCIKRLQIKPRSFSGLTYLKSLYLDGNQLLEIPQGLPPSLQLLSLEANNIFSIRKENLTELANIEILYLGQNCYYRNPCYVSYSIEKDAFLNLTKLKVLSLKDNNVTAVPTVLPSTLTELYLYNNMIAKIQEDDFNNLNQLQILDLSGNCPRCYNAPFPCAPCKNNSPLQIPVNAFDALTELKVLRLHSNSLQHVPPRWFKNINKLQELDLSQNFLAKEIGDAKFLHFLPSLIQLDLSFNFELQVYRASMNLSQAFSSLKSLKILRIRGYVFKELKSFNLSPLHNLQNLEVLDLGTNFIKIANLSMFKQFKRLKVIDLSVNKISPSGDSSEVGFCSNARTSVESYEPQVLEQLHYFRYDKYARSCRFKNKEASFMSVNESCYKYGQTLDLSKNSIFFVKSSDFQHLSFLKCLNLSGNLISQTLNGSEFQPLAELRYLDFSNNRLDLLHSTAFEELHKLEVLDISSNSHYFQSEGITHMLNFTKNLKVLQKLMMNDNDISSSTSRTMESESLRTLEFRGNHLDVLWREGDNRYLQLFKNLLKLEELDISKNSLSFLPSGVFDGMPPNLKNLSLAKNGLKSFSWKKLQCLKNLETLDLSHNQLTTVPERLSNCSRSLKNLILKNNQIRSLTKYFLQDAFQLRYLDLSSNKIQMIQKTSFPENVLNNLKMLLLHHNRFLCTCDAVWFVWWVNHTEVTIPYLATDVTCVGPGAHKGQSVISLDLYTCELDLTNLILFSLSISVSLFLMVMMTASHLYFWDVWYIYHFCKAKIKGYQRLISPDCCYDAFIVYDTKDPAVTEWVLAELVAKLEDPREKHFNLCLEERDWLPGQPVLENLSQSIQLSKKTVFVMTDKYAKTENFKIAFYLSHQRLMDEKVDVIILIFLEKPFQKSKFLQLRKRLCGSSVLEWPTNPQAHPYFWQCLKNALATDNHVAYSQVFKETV
Protocol: Human embryonic kidney 293 (HEK 293) cells were stably transfected with human TLR7 and an NF-kB-driven luciferase reporter vector (pNifty-Luciferase). As a control assay, normal Hek293 transfected with pNifty-Luc were used. Cells were cultured in DMEM supplemented with 2 mM L-glutamine, 10% heart inactivated FBS, 1% penicillin and streptomycin, 2 μg/ml puromycin (InvivoGen #ant-pr-5) and 5 μg/ml of blasticidin (Invitrogen #46-1120). Bright-Glo™ Luciferase assay buffer and substrate were supplied by Promega #E263B and #E264B (assay substrate and buffer respectively). 384 well clear-bottom plates were supplied by Greiner bio-one (#789163-G) and were custom bar-coded plates.
Cells were plated at 25,000 cells/well in 384-well plates in a final volume of 50 μl of media. Cells were allowed to adhere to the plates after overnight (18 hours) culture at 37° C. and 5% CO2. Serially diluted experimental and positive control compounds were then dispensed to each well and incubated for 7 hours at 37° C. and 5% CO2. Cells stimulated with DMSO alone also serve as negative controls. After the incubation, 30 μl of the pre-mix assay buffer and substrate buffer were added to each well according to manufacturer's instructions.
The EC50 value in those experiments is given as that concentration of the test compound in question that provoke a response halfway between the baseline and maximum responses. […] Such EC50 values are obtained relative to the activity of resiquimod set to 100%.

[1] = Desorption from aluminum hydroxide with KH2PO4 and n-butanol extraction, HPLC; type: physicochemical
Protocol: An organic solvent extraction method was used to evaluate whether compound 1 was covalently bound to aluminum hydroxide. The formulation was prepared as follows: 2 mg/ml aluminum hydroxide, 100 μg/dose compound 1, 10 mM histidine buffer) and the pH was adjusted to 9. A control formulation without aluminum hydroxide was also prepared.
One ml of the formulation containing Alum was mixed with 1 ml of KH2PO4 1M pH 9 (0.5M final conc, pH 9) and was left in gentle agitation overnight at 37° C. to allow desorption of compound 1 (compound 5) from the aluminum hydroxide via ligand exchange with the phosphate anions. Organic extraction was then performed: 1 ml of each sample was mixed with 1 ml of n-butanol and vortexed. After the formation of 2 phases, the upper phase (butanol) was recovered, dried with N2 and resuspended in MeOH/10 mM NaOH. HPLC analysis was run both for the formulation supernatants and for the butanol extracted samples (C18 column; 0-100% B in 2 min; A=0.1% TFA in H2O; B=0.1% TFA in ACN).
The adsorption of compound 16 and compound 18 to aluminum hydroxide was also evaluated using the alum formulation described above for compound 1. […] In addition, SDS PAGE analysis of antigen binding in the presence of compound 16 or compound 18 was carried out as described above.

[2] = Binding to alum in 10 mM histidine buffer, LC-MS/MS of supernatant; type: physicochemical; settings: 10 mM histidine buffer pH 6.8; final compound 0.1 mg/mL; 37° C. for 5 hours; 100% minus % unbound
Protocol: The resulting solution was diluted 10-fold with blank histidine buffer to a final compound concentration of 0.1 mg/mL. Diluted solutions were incubated at 37° C. for 5 hours. The samples were centrifuged at 14,000 rpm for 10 minutes to pellet the insoluble. The supernatant (along with an internal standard) was then evaluated by LC-MS/MS using a ballistic gradient (from 5% CH3CN-0.5% formic acid to 95% CH3CN-1.0% formic acid in 3.5 minutes) on a Waters Atlantis dC18 (50 mm×2.1 mm) column at room temperature against a calibration curve prepared at known compound concentrations ranging from 0.005 to 50 μM. The concentration in the supernatant was calculated as % unbound to alum compared to control; the % bound to alum was calculated as 100% minus % unbound.

[3] = Binding to aluminum hydroxide adjuvant, HPLC of formulation supernatant; type: physicochemical; settings: aluminum hydroxide 2 mg/mL, room temperature and 37° C., 1, 5 and 24 hours
Protocol: The binding of the compounds of Formula (I) provided herein to aluminum-containing adjuvants at pH 9 and pH 6.5 was evaluated using HPLC to monitor the presence of the compound of Formula (I) in the supernatant.
(§1) Compound 1 (0.5 mg/mL) was dissolved in 10 mM NaOH and added to aluminum hydroxide adjuvant (2 mg/mL) resulting in a 100 μg/dose formulation. The supernatant was evaluated with HPLC using a ballistic gradient (from 10% CH3CN-0.1% TFA to 100% CH3CN-0.1% TFA in 2.5 minutes) on a C18 ([…]×4.6 mm) ACE column at 45° C. To evaluate the effect of supernatant temperature and incubation time on binding, the supernatant was evaluated at a supernatant temperature of room temperature and at 37° C. after 1 hour, 5 hours and 24 hours. A control without aluminum hydroxide was also evaluated.
as §1, with “5 (1” for “1 (0.5”
as §1, with “formulation. The pH of the solution was adjusted to pH 6.5 using HCl.” for “formulation.”
as §1, with “5 (1” for “1 (0.5”, “histidine buffer (1 mg/mL)” for “NaOH”

Cc1cc(OCCCC(F)(F)P(=O)(O)O)ccc1CCc1cnc2c(N)nc3cc(CCC(=O)O)ccc3c2c1 [Compound 16, 3-(5-amino-2-(4-(4,4-difluoro-4-phosphonobutoxy)-2-methylphenethyl)benzo[f][1,7]naphthyridin-8-yl)propanoic acid]
EC50 (human TLR7): 137 nM
compound in supernatant after addition of aluminum hydroxide (HPLC) ([1]; alum formulation as described for compound 1): no compound was observed in the supernatant
% Alum bound in Histidine buffer [2]: 94.5%

Cc1ccc2c(c1)nc(N)c1ncc(CCc3ccc(OCCCP(=O)(O)O)cc3C)cc12 [Compound 1, 3-(4-(2-(5-amino-8-methylbenzo[f][1,7]naphthyridin-2-yl)ethyl)-3-methylphenoxy)propylphosphonic acid]
EC50 (human TLR7): 226 nM
presence of compound in supernatant when aluminum hydroxide included in formulation (HPLC) ([3]; pH 6.5 (adjusted with HCl)): not present in the supernatant
presence of compound in supernatant when aluminum hydroxide included in formulation (HPLC) ([3]; pH 9, dissolved in 10 mM NaOH): not present in the supernatant
quantity of compound in supernatant of formulation treated with KH2PO4 (desorption by phosphate anions) ([1]; 0.5M KH2PO4 pH 9, overnight 37° C.): Increased quantities
Concentration (mg/ml), phosphate/extract ([1]; alum formulation treated with 0.5M KH2PO4, n-butanol extracted sample): 0.119 ± 0.001 mg/mL
Concentration (mg/ml), phosphate supernatent ([1]; alum formulation treated with 0.5M KH2PO4 pH 9 overnight at 37° C., supernatant): 0.059 ± 0.001 mg/mL
Concentration (mg/ml), extaract ([1]; alum formulation, n-butanol extracted sample): 0.027 ± 0.001 mg/mL
Concentration (mg/ml), control/extract ([1]; control formulation without aluminum hydroxide, n-butanol extracted sample): 0.217 ± 0.001 mg/mL
Concentration (mg/ml), supernatant control ([1]; control formulation without aluminum hydroxide, supernatant): 0.329 ± 0.001 mg/mL
Concentration (mg/ml), supernatent ([1]; formulation with 2 mg/ml aluminum hydroxide, 10 mM histidine buffer pH 9, supernatant): 0.005 ± 0.001 mg/mL

Cc1ccc2c(c1)nc(N)c1ncc(CCc3ccc(OCCCC(F)(F)P(=O)(O)O)cc3C)cc12 [Compound 5, 4-(4-(2-(5-amino-8-methylbenzo[f][1,7]naphthyridin-2-yl)ethyl)-3-methylphenoxy)-1,1-difluorobutylphosphonic acid]
EC50 (human TLR7): 308 nM
presence of compound in supernatant when aluminum hydroxide included in formulation (HPLC) ([3]; pH 6.7, 10 mM histidine buffer): not present in the supernatant
presence of compound in supernatant when aluminum hydroxide included in formulation (HPLC) ([3]; pH 9, dissolved in 10 mM NaOH): not present in the supernatant

Cc1cc(OCCOCCOCCC(F)(F)P(=O)(O)O)ccc1CCc1cnc2c(N)nc3cc(CCC(=O)O)ccc3c2c1 [Compound 17, 3-(5-amino-2-(4-(2-(2-(3,3-difluoro-3-phosphonopropoxy)ethoxy)ethoxy)-2-methylphenethyl)benzo[f][1,7]naphthyridin-8-yl)propanoic acid]
EC50 (human TLR7): 5 nM
% Alum bound in Histidine buffer [2]: 96.2%
